Results from US10669312B2, “Peptide for suppressing osteoclast differentiation and use thereof” (CAREGEN CO., LTD., priority 2013, dated 2020).
Entries after “also recorded” stand apart in the source; their conditions may differ. Ends that are not written are not given here.

Key:
Format in all cases: cell-based
[1] = system: osteopontin (OPN); assay: Osteoblast differentiation marker mRNA expression (PCR), OPN; details: MC3T3-E1 cells, 10 or 50 μg/ml peptide, two days
Method: (§1) MC3T3-E1 cells were treated with 10 or 50 μg/ml of the peptides synthesized in synthetic example 1 to induce the differentiation for two days, and tests for verifying the mRNA expression of osteoblast differentiation markers, such as osteocalcin (OCN), osteoprotegerin (OPG), bone sialoprotein (BSP), and osteopontin (OPN), were conducted. Target-specific primer sequences used in PCR were as follows: OCN forward primer sequence, [NT] (SEQ ID NO:15) and OCN reverse primer sequence, [NT] (SEQ ID NO:16) (annealing temperature, 60° C.); OPG forward primer sequence, [NT] (SEQ ID NO:17) and OPG reverse primer sequence, [NT] (SEQ ID NO:18) (annealing temperature, 60° C.); BSP forward primer sequence, [NT] (SEQ ID NO:19) and BSP reverse primer sequence, [NT] (SEQ ID NO:20) (annealing temperature, 60° C.); OPN forward primer sequence, [NT] ID NO:21) and OPN reverse primer sequence, [NT] ID NO:22) (annealing temperature, 50° C.). […] Therefore, the peptides of the present invention can promote osteoblast differentiation by increasing the genetic expressions of OCN, OPG, BSP, and OPN, which are osteoblast differentiation markers.

[2] = system: pSmad1/5/8; assay: Osteogenic differentiation signal, Smad1/5/8 phosphorylation, western blotting; details: MC3T3-E1 cells, serum-starved 24 hours, 10 μg/ml peptide, 30 minutes
Method: In order to verify whether pSmad1/5/8, which is a signal involved in osteogenic differentiation, was activated by the present peptides, MC3T3-E1 cells were dispensed into 6-well plates at 2×10^5 cells, and then cultured for 24 hours under the conditions of 37° C. and 5% CO2. After 24 hours, the medium was changed with a serum-free medium, and then the cells were starved for 24 hours, treated with the 10 μg/ml peptides or 50 ng/ml BMP2, used as a positive control, for 30 minutes, washed with PBS, and dissolved in a lysis buffer, thereby obtaining proteins, which were then subjected to western blotting.

[3] = system: TRAP; assay: TRAP activity in differentiated Raw264.7 cells, absorbance 405 nm; details: 10 ng/ml RANKL, 50 ng/ml TNF-α, 1 or 10 μg/ml peptide, five days
Method: Raw264.7 cells were treated in combination with 10 ng/ml RANKL, 50 ng/ml TNF-α, or the 1 or 10 μg/ml peptide synthesized in synthetic example 1 to induce differentiation for five days, and then the inhibition degree of the activity of TRAP, an osteoclast differentiation marker, was tested. After culture, the culture liquid was removed, and then 100 μl of a lysis buffer (20 mM tris buffer, 3% triton X-100) was added to disrupt cell walls. A reaction solution is prepared from 500 μl of a citrate solution (18 mM citric acid, 9 mM sodium chloride, 12 mM surfactant; pH 3.5), 50 μl of a tartrate solution, and 500 μl of a 20 mM phosphate substrate. 100 μl of the lysate and 100 μl of the reaction solution were added in the same amount, and then the reaction was conducted at 37° C. for 30 minutes. For colorimetric analysis, the absorbance was determined at 405 nm using a spectrophotometer. It was validated that, in cases where the treatment with the peptide of SEQ ID NO: 1 or SEQ ID NO: 2 together with RANKL and TNF-α, the peptides inhibited the activity of TRAP, which is an osteoclast differentiation marker, in a concentration-dependent manner (FIGS. 4a and 4b).

[4] = system: Raw264.7 cells; assay: Osteoclast differentiation inhibition, TRAP staining; details: 10 ng/ml RANKL, 50 ng/ml TNF-α, 1 or 10 μg/ml peptide, five days
Method: In order to analyze the IL-3-like action and the inhibitory action of the peptides of SEQ ID NO: 1 and SEQ ID NO: 2, synthesized in synthetic example 1, TRAP staining was conducted using Raw264.7 strain differentiable into osteoclasts while referring to methods, such as tartrate-resistant acid phosphatase staining (Rizzino, et al. Cancer Res. 48:4266(1988)).
Raw264.7 cell lines (ATCC) were cultured in Dulbecco's modified Eagle's medium (DMEM, Gibco, U.S.A.) supplemented with 10% fetal bovine serum (FBS, Sigma) using each 250 ml-flask for tissue culture. The cultured cell lines were carefully detached from the bottom of the culture container using a pipette, followed by centrifugation, to obtain only cell precipitates. The cell precipitates were re-suspended in DMEM culture medium supplemented with 10% FBS, and then added to a […] for tissue culture plate at 1×10^4 cells per each well. For the induction of differentiation, the blank sample and RAW264.7 cells were treated with 10 ng/ml RANKL, 50 ng/ml TNF-α, and 1 μg/ml or 10 μg/ml synthesized peptides dissolved in 10% distilled water in a sterile state, […] After 72 hours, the medium was changed with the same culture liquid, and then the blank sample and the cells were treated with 10 ng/ml RANKL, 50 ng/ml TNF-α, and 1 μg/ml or 10 μg/ml synthesized peptides, and then cultured under the same conditions for 48 hours. […]

[5] = system: bone sialoprotein (BSP); assay: Osteoblast differentiation marker mRNA expression (PCR), BSP; details: MC3T3-E1 cells, 10 or 50 μg/ml peptide, two days
Method: as §1

[6] = system: osteocalcin (OCN); assay: Osteoblast differentiation marker mRNA expression (PCR), OCN; details: MC3T3-E1 cells, 10 or 50 μg/ml peptide, two days
Method: as §1

[7] = system: osteoprotegerin (OPG); assay: Osteoblast differentiation marker mRNA expression (PCR), OPG; details: MC3T3-E1 cells, 10 or 50 μg/ml peptide, two days
Method: as §1

Sequence	mRNA level of osteopontin (OPN) [1]	phosphorylation of Smad1/5/8 [2]	activity of TRAP, osteoclast differentiation marker [3]	RANKL- and TNF-α-induced differentiation of Raw264.7 into osteoclasts [4]	mRNA level of bone sialoprotein (BSP) [5]	mRNA level of osteocalcin (OCN) [6]	mRNA level of osteoprotegerin (OPG) [7]
RRKLTFYLKTLE [SEQ ID NO: 2, IL-3-derived synthetic peptide, 12 amino acids]	increased	led to the phosphorylation of Smad1/5/8; also recorded: increased	inhibited	inhibit	increased	increased	increased
NCSNMICEIITH (cysteine pairing not given here) [SEQ ID NO: 1, IL-3-derived synthetic peptide, 12 amino acids]	increased	led to the phosphorylation of Smad1/5/8; also recorded: increased	inhibited	inhibit	increased	increased	increased
